Data: the NIST ThermoML archive (doi:10.1016/j.tca.2012.08.011)

Assays:
[1] = xn = mol fraction of the nth substance listed; settings: 101 kPa, Liquid, x2 = 0; for speed of sound: Linear variable-path acoustic interferometer; for mass density: Vibrating tube method
[2] = 101 kPa, Liquid; for speed of sound: Linear variable-path acoustic interferometer; for mass density: Vibrating tube method

c1ccccc1 [benzene] + NC1CCCCC1
[1]
Settings	mass density [kg/m3]	speed of sound [m/s]
293.15 K	878.95	1322.7
298.15 K	873.61	1299.3
303.15 K	868.25	1276
308.15 K	862.88	1252.8
313.15 K	857.48	1229.8
318.15 K	852.08	1207
323.15 K	846.65	1184.5

C1CCCCC1 [cyclohexane]
[2]
Settings	mass density [kg/m3]	speed of sound [m/s]
293.15 K	778.55	1278.6
298.15 K	773.84	1253.9
303.15 K	769.11	1229.3
308.15 K	764.35	1205.1
313.15 K	759.56	1181
318.15 K	754.74	1157.3
323.15 K	749.89	1133.7

c1ccccc1 [benzene]
[2]
Settings	mass density [kg/m3]	speed of sound [m/s]
293.15 K	878.95	1322.7
298.15 K	873.61	1299.3
303.15 K	868.25	1276
308.15 K	862.88	1252.8
313.15 K	857.48	1229.8
318.15 K	852.08	1207
323.15 K	846.65	1184.5

NC1CCCCC1 [cyclohexylamine]
[2]
Settings	mass density [kg/m3]	speed of sound [m/s]
293.15 K	867.39	1430.5
298.15 K	862.85	1408.8
303.15 K	858.31	1387.3
308.15 K	853.76	1366
313.15 K	849.23	1344.5
318.15 K	844.68	1323.1
323.15 K	840.14	1301.8

C1CCCCC1 [cyclohexane] + NC1CCCCC1
[1]
Settings	mass density [kg/m3]	speed of sound [m/s]
293.15 K	778.55	1278.6
298.15 K	773.84	1253.9
303.15 K	769.11	1229.3
308.15 K	764.35	1205.1
313.15 K	759.56	1181
318.15 K	754.74	1157.3
323.15 K	749.89	1133.7
